pKi: −log10 of the molar value. “Also recorded” adds a separate entry of the source.
Assays:
human mu opioid receptor = molecular target: T1, human mu opioid receptor (Homo sapiens, UniProt P35372); assay: biochemical; assay type: binding; details: CHO-K1 membranes, [3H]DAMGO 6 nM; read-out: Ki, Mu opioid receptor
T1 construct: expressed in transfected cells; host or cells: CHO cells

Sprague-Dawley rats = assay: Abuse liability: progressive ratio test in rats trained to self-administer cocaine; assay type: in vivo; details: for reinforcing behavior, progressive ratio: all doses tested
Method: In the three-day rat substitution tests, rats trained to self-administer cocaine were exposed to saline or test article via intravenous bolus infusions for one hour sessions on three consecutive days.
The rate of self-administration is determined not only by reinforcing effects of drug but also by the direct effects of the drug on motor behavior. To measure reinforcing effects in a quantitative way, a procedure was utilized in which responding was determined by reinforcing effects uncontaminated with other drug effects. […] See, e.g., Griffiths R R, Brady J V, Bradford L D. Advances in Behavioral Pharmacology (Vol 2).
Under this schedule, the animal responds on the lever for delivery of test article. For each subsequent drug delivery the total number of responses emitted on the lever required for drug delivery was incremented upward using a logarithmic (base e) scale using the following equation:
Response requirement=5*e^(response increment*0.2)−5
The progressive “break point” is defined as the highest number of responses emitted by the animal to earn a single reinforcer delivery of drug or vehicle. This break point is used as a behavioral marker of how much work will be expended by an experimental subject to earn a single reinforcer delivery. The amount of work expended to earn a single reinforcer is used to compare the efficacy of drug deliveries with respect to the hedonic valence induced by the drug injection with the assumption that the subjective hedonic valence of a reinforcer determines its abuse liability.

Male CD-1 mice = assay: Assessment of CNS side effects in mice (Straub tail, muscle rigidity, pinna reflex)
From the text: The objective of this study was to provide an approximation of the side effect profile of various oligomeric conjugates for comparison to the parent compounds by measuring various gross behavioral and physiological signs following administration of compound.
Additional evaluations included muscle rigidity and pinna reflex.
Male CD-1 mice from Charles River Laboratories, Raleigh, N.C., weighing from 16-18 grams were maintained on a regular light/dark cycle (lights on 0600-1800) with ad libitum food and water for 1 week before commencement of testing. N=2 per treatment condition, i.e., separate mice for each dose of each test article, injection was performed via a 25-gauge ⅝-inch needle on a 1-mL tuberculin syringe for the s.c. route and a 22-gauge stainless steel mouse feeding tube for the p.o. route (Becton, Dickinson & Co., Franklin Lakes, N.J.). Each treatment condition was divided about evenly between two observers. […] Test article was administered (s.c. or p.o., and the mouse was placed immediately in the observation chamber). One-half, 1, 2, and 3 hours later, the animal was observed undisturbed for gross signs such as locomotor ataxia, tremor, hyperactivity, hypoactivity, convulsions, hindlimb splay, and Straub tail, and then removed and assessed for muscle tone (normal, rigid, flaccid), pinna reflex (presence or absence), righting reflex (intact or lost), and placing (whether or not the forepaws are extended when the mouse is placed near a surface).
Each of the tables show the number of animals responding at each dose, where N=2. […] A bolded value indicates the lowest dose at which a response was detected.

male (CD1) mice = assay: Respiratory depression, whole body plethysmography with CO2 challenge; details: equianalgesic doses (100 mg/kg vs oxycodone 30 mg/kg, gavage)
Method: The animals were housed in SPF conditions. The animal housing facilities were maintained at 72°+/−2° F. with a light cycle of 12:12 hours (light:dark). Autoclaved rodent chow and water are provided ad libitum.
Approximate measurements of minute ventilation were carried out using Buxco unrestrained whole body plethysmographs (WBP). Digital computer aided analysis of the analog signal was used to report measurements of tidal volume, frequency of breathing, minute ventilation, inspiratory and expiratory times and flows as well as other derived measurements.
To more clearly delineate the effect of these test articles on respiratory depression, a hypercapnic ventilatory stimulus (CO2) was added to the animals' breathing air supply to stimulate ventilation.
Mice received the drug by gavage and then were placed in the WBP. […] The mouse remained in that atmosphere for 10 minutes, after which time the chamber was flushed with zero grade air for another 20 min to allow ventilation to return to baseline. The mouse was challenged again with 8% CO2 for 10 minutes. […] The last 2 minutes of each of the two conditions (Air or 8% CO2) was recorded and analyzed for the following respiratory parameters: minute ventilation, respiratory frequency, tidal volume, and time of inspiration/expiration for animals in each dose group.

[1] = listed as mPEG6-O-hydroxycodone

T1 sequence (P35372 whole entry): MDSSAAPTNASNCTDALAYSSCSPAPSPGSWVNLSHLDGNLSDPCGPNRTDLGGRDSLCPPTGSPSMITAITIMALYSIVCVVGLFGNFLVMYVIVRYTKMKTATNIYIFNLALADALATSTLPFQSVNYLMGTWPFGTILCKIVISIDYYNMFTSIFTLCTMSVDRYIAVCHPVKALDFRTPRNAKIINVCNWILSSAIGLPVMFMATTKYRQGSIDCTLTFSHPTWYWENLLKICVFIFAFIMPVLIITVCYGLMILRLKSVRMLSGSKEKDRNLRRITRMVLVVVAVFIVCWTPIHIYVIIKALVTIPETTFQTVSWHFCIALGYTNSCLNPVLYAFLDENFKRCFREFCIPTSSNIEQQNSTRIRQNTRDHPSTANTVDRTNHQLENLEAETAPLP

## COCCOCCOCCOCCOCCOCCOC1CCC2(O)C3Cc4ccc(OC)c5c4C2(CCN3C)C1O5 (stereo not drawn) [α-6-mPEG6-O-hydroxycodone, α-6-mPEG6-O-oxycodone]
Human mu opioid receptor
  pKi: 5.72
Sprague-Dawley rats; 1.0 mg/kg/injection
  progressive ratio break point: 21
Sprague-Dawley rats
  reinforcing behavior, progressive ratio: no reinforcing behavior was observed; also recorded: no reinforcing behaviour was exhibited
Sprague-Dawley rats; [1]
  reinforcing behavior, progressive ratio: showed no reinforcing properties and behaved like saline
Male CD-1 mice; PO, 1/2 responding
  Loss Pinna, fold difference relative to parent compound: >>
  Muscle Rigidity, fold difference relative to parent compound: >100 fold
  Straub Tail, fold difference relative to parent compound: 100 fold
Male CD-1 mice; PO, 2/2 responding
  Loss Pinna, fold difference relative to parent compound: >>
  Muscle Rigidity, fold difference relative to parent compound: >30 fold
  Straub Tail, fold difference relative to parent compound: >100 fold
Male CD-1 mice; SC, 1/2 responding
  Loss Pinna, fold difference relative to parent compound: >30 fold
  Muscle Rigidity, fold difference relative to parent compound: 100 fold
  Straub Tail, fold difference relative to parent compound: 100 fold
Male CD-1 mice; SC, 2/2 responding
  Loss Pinna, fold difference relative to parent compound: 33 fold
  Muscle Rigidity, fold difference relative to parent compound: 100 fold
  Straub Tail, fold difference (reduction in CNS activity) relative to parent compound: 100 fold
Male CD-1 mice; male, CD-1, mouse, in vivo, oral
  decrease in CNS activity relative to parent opioid: 10-100 fold
Male CD-1 mice; oral doses up to 100 mg/kg
  mice showing the straub tail response: none
Male CD-1 mice; oral, 1 mg/kg
  Loss Pinna, number of animals responding (N=2): 0
  Muscle Rigidity, number of animals responding (N=2): 0
  Straub Tail Effect, number of animals responding (N=2): 0
Male CD-1 mice; oral, 3 mg/kg
  Loss Pinna, number of animals responding (N=2): 0
  Muscle Rigidity, number of animals responding (N=2): 0
  Straub Tail Effect, number of animals responding (N=2): 0
Male CD-1 mice; oral, 10 mg/kg
  Loss Pinna, number of animals responding (N=2): 0
  Muscle Rigidity, number of animals responding (N=2): 0
  Straub Tail Effect, number of animals responding (N=2): 0
Male CD-1 mice; oral, 30 mg/kg
  Loss Pinna, number of animals responding (N=2): 0
  Muscle Rigidity, number of animals responding (N=2): 0
  Straub Tail Effect, number of animals responding (N=2): 0
Male CD-1 mice; oral, 100 mg/kg
  Loss Pinna, number of animals responding (N=2): 0
  Muscle Rigidity, number of animals responding (N=2): 1
  Straub Tail Effect, number of animals responding (N=2): 0
Male CD-1 mice; oral, 300 mg/kg
  Loss Pinna, number of animals responding (N=2): 0
  Muscle Rigidity, number of animals responding (N=2): 1
  Straub Tail Effect, number of animals responding (N=2): 1
Male CD-1 mice; oral, highest dose tested
  lowest dose causing a detectable response in the straub test: 300 mg/kg
Male (CD1) mice; listed as PEG-6-O-hydroxycodone
  respiratory depression compared to oxycodone: produces less respiratory depression than oxycodone
Male (CD1) mice; [1]
  respiratory depression compared to oxycodone: less respiratory depression
